A short description of data set [1]: Bidirectional permeability assay (Caco-2 cells). The class given is in vitro ADME. The conditions noted are these: human, Caco-2, absorptive direction (A2B), 10 μM in FaSSIF buffer. The method, then:
Bidirectional Permeability Assay (Caco-2 Cells)
Caco-2 cells (Evotec) were seeded at a density of 70,000 cells/well in Millicell® 24-well cell culture insert plates and maintained in an incubator (37° C., 5% CO2, 95% RH) for 21 days with media change on alternate days.
Stock solutions (10 mM) of the test compounds, atenolol (low permeability marker), propranolol (high permeability marker) and digoxin (substrate for P-gp transport pathway) were prepared in dimethylsulfoxide (DMSO). An intermediate stock solution (1 mM) was prepared by diluting 10 μL of 10 mM master stock solution with 90 μL of neat DMSO. A working stock solution (10 μM) was prepared by diluting 50 μL of 1 mM with 4950 μL of FaSSIF buffer. Post addition of compounds to the FaSSIF, samples were subjected to sonication for 2 hours, and centrifuged at 4000 RPM for 30 minutes at 37° C. The 4 mL of resultant supernatant was directly used in the assay. The final DMSO concentration in the transport experiments was 1%.
On the day of assay, Caco-2 monolayers were washed twice with transport buffer (HBSS, pH 7.4) and pre-incubated for 30 min (37° C., 5% CO2, 95% RH) in an incubator. The electrical resistance of the monolayers was measured with a Millicell®—ERS system. Monolayers with trans-epithelial electrical resistance (TEER) values greater than 350 ohm·cm^2 were selected for the assay.
The assay was conducted in absorptive direction (A2B) and secretory (B2A) directions. Transport experiments were initiated by addition of transport assay buffer (FaSSIF buffer prepared in HBSS) consisting of compounds to the donor compartment (apical chamber A-B; basolateral chamber B-A) in duplicate (n=2) wells. Drug free HBSS buffer (pH 7.4) containing 1% bovine serum albumin (BSA) was introduced to the receiver (A-B-basolateral; B-A-Apical) compartments. The volumes of apical and basolateral compartments were 0.4 and 0.8 mL, respectively. After adding dosing solution, plates were incubated in an incubator for 120 minutes at 37° C. After 120 minutes, donor and receiver samples were collected and matrix matched (1:1, 30 μL study sample+30 μL blank buffer) with the opposite buffer. Dosing samples matrix matched (1:1, 30 μL study sample+30 μL blank buffer) with the opposite buffer. Samples were processed by adding acetonitrile containing internal standard (60 μL study sample+200 μL acetonitrile containing internal standard—Tolbutamide, 500 ng/mL). Samples were vortexed and centrifuged at 4000 rpm for 10 minutes. The obtained supernatant (100 μL) was diluted with 100 μL of water and transferred to fresh 96 well plates. The concentration of compounds in the samples was analyzed by liquid chromatography tandem mass spectrometry (LC-MS/MS) method using discovery grade bio-analytical method, as applicable.
The mean apparent permeability (Papp,×10^−6 cm/sec) of the test compounds, atenolol, propranolol and digoxin were calculated as follows:
[formula] where dq/dt=rate of transport (rate of transport of compound in the receiver compartment), C0=initial concentration in the donor compartment, A=surface area of the effective filter membrane.
In general terms: Caco-2 cells form a polarised layer with tight junctions and transporters.

The target of data set [2] is T1, Human LBAT (Homo sapiens, UniProt Q14973).
T1 construct: expressed in transfected cells; Geneticin-selected
T1 sequence (Q14973 1-349): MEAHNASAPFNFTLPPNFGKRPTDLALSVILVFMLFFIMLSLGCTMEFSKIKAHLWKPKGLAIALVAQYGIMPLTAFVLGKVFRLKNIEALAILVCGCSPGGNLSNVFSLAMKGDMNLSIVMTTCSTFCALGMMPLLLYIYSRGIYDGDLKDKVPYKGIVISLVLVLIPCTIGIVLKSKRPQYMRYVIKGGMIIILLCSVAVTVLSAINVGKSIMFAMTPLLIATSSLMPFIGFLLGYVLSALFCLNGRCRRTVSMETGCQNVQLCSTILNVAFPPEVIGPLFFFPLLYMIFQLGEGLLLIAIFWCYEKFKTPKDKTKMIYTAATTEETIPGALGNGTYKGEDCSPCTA
The data set is described as follows: LBAT (h/m) assay, human LBAT-overexpressing cells, 3H-taurocholic acid uptake. As to conditions: 0.3 μM 3H-taurocholic acid and 7.5 μM cold taurocholic acid, 20 minutes, read-out: hLBAT IC50. In kind it is cell-based. The method in brief: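 Human LBAT-overexpressing cells, washed in FBS-free MEM-alpha, incubated 20 min at 37 °C with 10-point 3-fold inhibitor dilutions (0.2% DMSO final), 0.3 μM 3H-taurocholic acid plus 7.5 μM cold taurocholic acid (mouse LBAT: 25 μM cold). Ice stop, chilled 1 mM taurocholate washes; uptake read by scintillation counting.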

By Papp A→B is commonly meant the apparent permeability from the apical to the basolateral side of a cell layer. A higher Papp A→B goes with ready permeation. By IC50 is commonly meant the concentration that gives 50% inhibition.

For `CCCCC1(C)CN(c2ccccc2)c2cc(N(C)C)c(OCCC(=O)O)cc2S(=O)(=O)C1` (single isomer, unassigned) [29, enantiomer 1], the Papp A→B at 120 min, 10 μM in data set [1] came to 205 nm/s. For the same compound, in data set [2], the IC50 was determined as 2.59 µM.
For `CCCCC1(CC)CN(c2ccccc2)c2cc(SC)c(OCCC(=O)O)cc2S(=O)(=O)C1` (single isomer, unassigned) [Example 13, 3-((3-butyl-3-ethyl-7-(methylthio)-1,1-dioxido-5-phenyl-2,3,4,5-tetrahydro-1,5-benzothiazepin-8-yl)oxy)propanoic acid], the Papp A→B at 120 min, 10 μM in data set [1] came to 103 nm/s. Moreover, the half-maximal inhibitory concentration (IC50) in data set [2] turned out to be 0.489 µM.
In the same order, the values of `CCCCC1(CC)CN(c2ccccc2)c2cc(SC)c(OCC(C)(F)C(=O)O)cc2S(=O)(=O)C1` (stereo not shown) [Example 34, 3-((3-butyl-3-ethyl-7-(methylthio)-1,1-dioxido-5-phenyl-2,3,4,5-tetrahydro-1,5-benzothiazepin-8-yl)oxy)-2-fluoro-2-methylpropanoic acid] are 54 nm/s and 0.028 µM.
In the case of `CCCCC1(CC)CN(c2ccccc2)c2cc(Br)c(OCCC(=O)O)cc2S(=O)(=O)C1` (racemic) [Example 1, 3-((7-Bromo-3-butyl-3-ethyl-1,1-dioxido-5-phenyl-2,3,4,5-tetrahydro-1,5-benzothiazepin-8-yl)oxy)propanoic acid], the Papp A→B at 120 min, 10 μM in data set [1] was found to be 134 nm/s. For the same compound, the IC50 in data set [2] came to 2.17 µM.
In turn, `CCCCC1(CCCC)CN(c2ccccc2)c2cc(SC)c(OCCC(=O)O)cc2S(=O)(=O)C1` [Example 15, 3-((3,3-dibutyl-7-(methylthio)-1,1-dioxido-5-phenyl-2,3,4,5-tetrahydro-1,5-benzothiazepin-8-yl)oxy)propanoic acid] had a Papp A→B at 120 min, 10 μM in data set [1] of 97 nm/s. Besides, the IC50 in data set [2] was 1.93 µM.
In the same order, the values of `CCCCC1(CCCC)CN(c2ccccc2)c2cc(SC)c(OCC(O)C(=O)O)cc2S(=O)(=O)C1` (single isomer, unassigned) [Example 10, 3-((3,3-dibutyl-7-(methylthio)-1,1-dioxido-5-phenyl-2,3,4,5-tetrahydro-1,5-benzothiazepin-8-yl)oxy)-2-hydroxypropanoic acid] are 21 nm/s and 0.379 µM.
`CCCCC1(CC)CN(c2ccccc2)c2cc(SC)c(OCC(C)(F)C(=O)O)cc2S(=O)(=O)C1` (single isomer, unassigned) [35, diastereomer 1] registered a Papp A→B at 120 min, 10 μM in data set [1] of 40 nm/s. Moreover, the IC50 in data set [2] is 0.048 µM.
The corresponding values for `CCCCC1(C)CN(c2ccccc2)c2cc(SC)c(OCCC(=O)O)cc2S(=O)(=O)C1` (single isomer, unassigned) [Example 24, 3-((3-butyl-3-methyl-7-(methylthio)-1,1-dioxido-5-phenyl-2,3,4,5-tetrahydro-1,5-benzothiazepin-8-yl)oxy)propanoic acid] are 225 nm/s and 0.596 µM.
Compound `CCCCC1(CC)CN(c2ccccc2)c2cc(Cl)c(OCCC(=O)O)cc2S(=O)(=O)C1` (single isomer, unassigned) [Example 6, 3-((3-butyl-7-chloro-3-ethyl-1,1-dioxido-5-phenyl-2,3,4,5-tetrahydro-1,5-benzothiazepin-8-yl)oxy)propanoic acid] returned a Papp A→B at 120 min, 10 μM in data set [1] of 136 nm/s. Further, the IC50 in data set [2] is 0.41 µM.
`CCCCC1(CC)CN(c2ccccc2)c2cc(Br)c(OCCC(=O)O)cc2S(=O)(=O)C1` (single isomer, unassigned) [Example 2, 3-((7-bromo-3-butyl-3-ethyl-1,1-dioxido-5-phenyl-2,3,4,5-tetrahydro-1,5-benzothiazepin-8-yl)oxy)propanoic acid] yielded a Papp A→B at 120 min, 10 μM in data set [1] of 34 nm/s. For the same compound, the IC50 in data set [2] turned out to be 0.375 µM.
In data set [1], `CCCCC1(C)CN(c2ccccc2)c2cc(SC)c(OCC(O)C(=O)O)cc2S(=O)(=O)C1` (single isomer, unassigned) [32, diastereomer 1] showed a Papp A→B at 120 min, 10 μM of 33 nm/s. For the same compound, the IC50 in data set [2] came out at 2.95 µM.
As for `CCCCC1(CCCC)CN(c2ccccc2)c2cc(SC)c(OCC(O)C(=O)O)cc2S(=O)(=O)C1` (single isomer, unassigned) [Example 11, 3-((3,3-dibutyl-7-(methylthio)-1,1-dioxido-5-phenyl-2,3,4,5-tetrahydro-1,5-benzothiazepin-8-yl)oxy)-2-hydroxypropanoic acid], the IC50 in data set [2] worked out at 0.613 µM.
Regarding `CCCCC1(CC)CN(c2ccccc2)c2cc(Cl)c(OC(C)CC(=O)O)cc2S(=O)(=O)C1` (single isomer, unassigned) [30, diastereomer 1], the apparent permeability from apical to basolateral (Papp A→B) at 120 min, 10 μM in data set [1] amounted to 90 nm/s. For the same compound, in data set [2], the IC50 was found to be 0.283 µM.
The corresponding values for `CCCCC1(CCCC)CN(c2ccccc2)c2cc(Br)c(OCCC(=O)O)cc2S(=O)(=O)C1` [Example 4, 3-((7-Bromo-3,3-dibutyl-1,1-dioxido-5-phenyl-2,3,4,5-tetrahydro-1,5-benzothiazepin-8-yl)oxy)propanoic acid] are 22 nm/s and 0.375 µM.
The corresponding values for `CCCCC1(CC)CN(c2ccccc2)c2cc(SC)c(OCC(C)(O)C(=O)O)cc2S(=O)(=O)C1` (single isomer, unassigned) [48, diastereomer 2] are 32 nm/s and 0.155 µM.
In the case of `CCCCC1(CCCC)CN(c2ccccc2)c2cc(SC)c(OCC(O)C(=O)O)cc2S(=O)(=O)C1` (racemic) [Example 9, 3-((3,3-Dibutyl-7-(methylthio)-1,1-dioxido-5-phenyl-2,3,4,5-tetrahydro-1,5-benzothiazepin-8-yl)oxy)-2-hydroxypropanoic acid], the Papp A→B at 120 min, 10 μM in data set [1] worked out at 16 nm/s. In addition, the half-inhibitory concentration (IC50) in data set [2] was 0.396 µM.

For the origin of these results see patent US11773071B2, “Benzothiazepine compounds and their use as bile acid modulators” (Albireo AB, priority 2019, dated 2023).
